# Experimental data published in patent publication US11155580B2, “Modified proteins and methods of use thereof” (YALE UNIVERSITY, priority 2013, dated 2021).
# pEC50: −log10 of the molar value. Entries after “also recorded” stand apart in the source; their conditions may differ. Where no end group is shown, it is not given here. rhodamine = not defined here; Rhod = not defined here
# Assays:
# [1] = tested on: HeLa cells transfected with pGR-mCherry and Rab5-GFP or Rab5Q79L-GFP; assay: GR-mCherry translocation in cells expressing Rab5-GFP or Rab5Q79L-GFP; assay type: cell-based; conditions: 1 μM, 30 min
# Protocol: Cotransfected cells expressing Rab-GFP fusions and pGR-mCherry were identified via their characteristic pattern of green and red fluorescence. The translocation ratio was determined using median values of mCherry fluorescence within the nucleus and surrounding region using CellProfiler.
# HeLa cells transfected for 24-36 hr with pGR-mCherry and either Rab5-GFP or Rab5Q79L-GFP were plated (10^4/well in […]) the day prior to experiments in 96 well glass bottom plates (Matrical). The cells were washed with HKR buffer and the nuclei labeled using Hoescht as above. […] The cells were incubated for a further 30 min at 37° C. before imaging. Cells that had been cotransfected with EGFP fusions were identified via their characteristic pattern of green and red fluorescence. To evaluate the extent of GR activation, epifluorescence images were obtained as described above, except the fluorescence of pGR-mCherry was also visualized using Zeiss Filter Set #43 (ex BP 545/25 nm, FT 570, em BP 605/70 nm).
# (§1) The image analysis algorithm used by CellProfiler is customizable and contained within a ‘Pipeline’ that describes a series of image manipulation and evaluation steps, such as reading the image, adjusting the intensity, and identifying objects. Each step has several options. […] Using the image of Hoescht fluorescence and Otsu's method of automatic thresholding, nuclei were identified and segmented using 3 class thresholding. The middle class was assigned to background. Closely approximated objects were separated using ‘Laplacian of Gaussian’ modeling, and touching nuclei were divided using the ‘shape’ option. Nuclear regions were expanded by 2 μm to generate an enlarged region. The nuclear region was subtracted from enlarged region to generate a ring surrounding the nucleus (surround). The diameter of the surrounding region was chosen to be 2 μm larger than the nucleus, within the range (1-3 μm) used by previously reported high content screens (Ding et al., 1998, J Biol Chem. 273:28897-28905; Peeraniet al., 2007, EMBO J. 26:4744-4755). The ratio of the median intensities of the nuclear and surrounding region of the GFP or mCherry (as appropriate) image were collected for every cell examined. Those cells falling below a threshold of intensity (10% of the maximum intensity of the image) were discarded as ‘untransfected’. Typically, 20-60 transfected cells from 15-30 images were examined for each experimental condition.
# [2] = tested on: HeLa cells transfected with GR-GFP; assay: GR-GFP translocation assay (cytosolic access of Dex-labeled molecules); assay type: cell-based; conditions: for translocation ratio (TR): HeLa cells expressing GR-GFP
# Protocol: HeLa cells transfected with pK7-GR-GFP were plated in Matrical plates as described above. To label nuclei, the media was replaced with HKR buffer containing 300 nM Hoescht and the cells incubated for 30 min at 37° C.
# Cells were then analyzed as described above.
# HeLa cells transfected with pK7-GR-GFP for 24-36 hr were plated (10^4/well in 200 μL) the day prior to experiments in 96 well glass bottom plates (Matrical). The media was replaced with HKR buffer containing 300 nM Hoescht and the cells incubated for 30 min at 37° C. […] The cells were incubated for a further 30 min at 37° C. before epifluorescence imaging using a Zeiss Axiovert 200M microscope fitted with a mRM digital camera, a 63×1.3NA PlanApo objective and an EXFO-Excite illumination source.
# Uptake was allowed to proceed for an additional 30 min at 37° C. before analysis by epifluorescence images as described elsewhere herein.
# as §1, with “The diameter of the surrounding region was chosen to be 2 μm larger than the nucleus, within the range (1-3 μm) used by previously reported high content screens (Ding et al., 1998, J Biol Chem. 273:28897-28905; Peeraniet al., 2007, EMBO J. 26:4744-4755).” left out
# [3] = Figure 15
# Text: Table printed on a drawing sheet, Figure 15
# The amino acid sequence of Arg8 is provided in SEQ ID NO:68.
# First reader's note: Cytosolic concentration and percent in cytosol are taken as measures of cell permeability or uptake; the supplied text has no description of Figure 15.
# [4] = tested on: U2OS(GIGI) cells; assay: GIGI in lysates, stably transfected U2OS(GIGI) cells; assay type: cell-based; conditions: Dex-labeled peptides, 24 h, lysates, read-out: EC50 (eGFP expression, GIGI)
# Text: RFUs are expressed±standard deviation (Excel). The maximum induction level is defined as RFUmax. Data were processed using Kaleidagraph and GraphPad Prism software. RFU=([I530]/[I580])−([I′530]/[I′580]) (1)
# Y=Ymin+(Ymax−Ymin)/(1+10^logEC50-X) (2)
# [5] = tested on: HeLa cells; assay: Colocalization with Alexa-488-transferrin (Tf488), live cell confocal microscopy; assay type: cell-based; conditions: 1 μM, 30 min
# Protocol: To examine the colocalization of rhodamine labeled miniature proteins or peptides with Alexa-488-transferrin (Tf488), HeLa cells were plated (200 μl, 10^4 cells/well, 96 well glass bottom plates, Matrical) the day prior to experiments. The media was replaced with 150 μL Hepes-Krebs-Ringer's (HKR) buffer (140 mM NaCl, 2 mM KCl, 1 mM CaCl2, 1 mM MgCl2, 10 mM Hepes pH 7.4) containing 1 μM miniature protein or 25 nM Alexa-488-transferrin (Molecular Probes) and the cells incubated at 37° C. for 30 min. The cells were then rinsed twice with 200 μL, HKR buffer and nuclei were labeled by overlaying 200 μL HKR containing 300 nM Hoechst 33342 (Molecular Probes Cat. # H3570) for 5 minutes. Images of cells were acquired using a PerkinElmer LiveView spinning disk confocal microscope fitted with a 60×1.2 NA objective. Colocalization with Rab-GFP fusions was examined in an analogous way using HeLa cells transfected with the appropriate expression plasmid.
# Colocalization between rhodamine and fluorescein labeled miniature proteins and peptides, or between rhodamine labeled miniature proteins and markers of endocytosis was completed using confocal microscopy. Live cell confocal microscopy was conducted using a PerkinElmer LiveView spinning disk confocal microscope fitted with heated microscope enclosure (maintained at 37° C.), a 60×1.2 NA objective, laser illumination, a Nipkow CSU-1× spinning disk, and a Hammamatsu CS9100 EMCCD camera operated using Velocity software. Alexafluor-488-transferrin was detected using a 488 nm laser and a 520 nm long pass filter; tetraethylrhodamine and Alexafluor-546-transferrin were detected using a 546 nm laser line and a 580 nm long pass filter, Hoescht 33342 was detected using a 405 nm laser line and a 450 nm long pass filter. Images were processed for presentation by using the ‘subtract background’ option and linear contrast adjustments in Image J. All adjustments were applied uniformly to the entire image. Colocalization analysis was performed using the JACOP plugin (Bolte and Cordelières, 2006), available on the ImageJ website. The fraction of rhodamine signal overlapping with EGFP signal (R E G) was calculated using Mander's coefficient and automatic thresholding. Pearson's correlation coefficient (R) was also obtained using the JACOP plugin.
# [6] = target: cathepsin B (Homo sapiens, UniProt P07858); assay: Resistance to acid proteases: cathepsin B; assay type: in vitro ADME; conditions: 50 pmol, 30 min, 37° C., pH 5
# Protocol: 50 pmol aPPR, 5.2R, 5.3R, ZF5.3R, TatR (SEQ ID NO:67), or Arg8R (SEQ ID NO:68) were incubated with 5 pg cathepsin B, D, or L for 30 min at 37° C. in 10 μL of 20 mM sodium phosphate buffer (pH 5) containing 150 mM NaCl. At the end of the incubation, the reaction was stopped by adding 40 μL of a solution containing a 84:15:1 ratio of water:EtOH:TFA before analysis by HPLC.
# [7] = tested on: HeLa cells; assay: Effects of endocytosis inhibitors on cell uptake, confocal microscopy; assay type: cell-based; conditions: 1 μM rhodamine labeled, 30 min, 37° C.
# Protocol: HeLa cells grown for 24 h in glass bottom plates were incubated with HKR buffer, or HKR buffer containing 80 μM dynasore, 50 μM N-ethyl-isopropyl-amiloride, or 5 mM methyl-β-cyclodextrin for 30 min at 37° C. prior to the addition of 1 μM rhodamine-labeled miniature protein or peptide (Tat (SEQ ID NO:67) and Arg8 (SEQ ID NO:68)). The cells were washed twice with DMEM, the nuclei labeled with Hoescht, and images acquired as described above for colocalization experiments.
# [8] = tested on: HeLa cells; assay: HPLC analysis of cytosolic extracts prepared with streptolysin O; assay type: cell-based; conditions: HeLa cells treated with rhodamine labeled molecule
# Protocol: To generate cytosolic extracts, HeLa cells were treated with streptolysin O (SLO), a well characterized bacterial toxin that creates pores in the plasma membranes of target cells (Walev et al., 2002, FASEB 16:237-239). […] Moreover, when the toxin is added to cultured cells at 4° C. and washed with PBS before raising the temperature to 37° C., pores are created only in the plasma membrane and the release of ER, golgi, or endolysosomal contents are avoided (Androlewicz et al., 1993, Proc Natl Acad Sci USA 90:9130-9134).
# First, selective release of the cytoplasmic contents of HeLa cells using the published procedures was verified. HeLa cells were treated with 20 μg/mL SLO in PBS containing 5 mM DTT (20 min, 4° C.), washed (three PBS washes, 150 μL each), resuspended in PBS, and incubated at 37° C. for 15 min, after which 1.5 μM propidium iodide (PI), a marker of permeabilized cell membranes, was added.
compound,measurement,setting,value
"C[C@@H]1C[C@H]2[C@@H]3CCC4=CC(=O)C=C[C@]4(C)[C@@]3(F)[C@@H](O)C[C@]2(C)[C@@]1(O)C(=O)CO [Dex, dexamethasone]","TR (GR-mCherry), Rab5Q79L-GFP expressing cells",[1]; Rab5Q79L-GFP,2.45±0.21
same,"TR (GR-mCherry), Rab5-GFP expressing cells",[1]; wild-type Rab5-GFP,2.24±0.15
same,reduction of the increase in TR by MβCD,"[2]; 5 mM MβCD, 1 μM",53%
GRKKRRQRRRPPQY [Tat],% in cytosol,[3],0.93%
same,[molecule] in cytosol,[3],4.63 nM
K^DexGPSQPTYPGDDAPVEDLIRFYNDLQQYLNVVTRHRY-NH2 (K(dexamethasone)GPSQPTYPGDDAPVEDLIRFYNDLQQYLNVVTRHRY-NH2) [aPPDex],pEC50,[4],6.36
same,"TR (GR-mCherry), cells expressing Rab5Q79L-GFP or Rab5-GFP",[1],1.25±0.04
same,effect of bafilomycin on TR,"[2]; 200 nM bafilomycin pretreatment 1 h, then 1 μM",did not alter the effect
same,translocation ratio (TR),"[2]; 1 μM, 30 min",1.41±0.09
same,effect of EIPA on TR,"[2]; 50 μM EIPA pretreatment 30 min, then 1 μM, 30 min",None of the endocytosis inhibitors altered the TR
same,effect of dynasore on TR,"[2]; 80 μM dynasore pretreatment 30 min, then 1 μM, 30 min",None of the endocytosis inhibitors altered the TR
same,effect of methyl-β-cyclodextrin (MβCD) on TR,"[2]; 5 mM MβCD pretreatment 30 min, then 1 μM, 30 min",None of the endocytosis inhibitors altered the TR
K^DexWYSCNVCGKAFVLSAHLNQHLAVHTQAT-NH2 (K(dexamethasone)WYSCNVCGKAFVLSAHLNQHLAVHTQAT-NH2; cysteine pairing not given here) [ZFDex],pEC50,[4],6.99
same,translocation ratio (TR),"[2]; 1 μM, 30 min",1.4±0.05
K^RhodGPSQPTYPGDDAPVEDLIRFYRDLRRYLNVVTRHRY-NH2 (K(rhodamine)GPSQPTYPGDDAPVEDLIRFYRDLRRYLNVVTRHRY-NH2; reading uncertain; also: printed as K^RhodGPSQPTYPGDDAPVEDLIRFYRDLRRYLNVVTRHRY-NH2) [4.3R],intracellular red fluorescent signal,[5],red fluorescent puncta throughout the cytosol
K^RhodGPSQPTYPGDDAPVRDLIRFYRDLQRYLNVVTRHRY-NH2 (K(rhodamine)GPSQPTYPGDDAPVRDLIRFYRDLQRYLNVVTRHRY-NH2; reading uncertain; also: printed as K^RhodGPSQPTYPGDDAPVRDLIRFYRDLQRYLNVVTRHRY-NH2) [4.2R],intracellular red fluorescent signal,[5],red fluorescent puncta throughout the cytosol
K^RhodGPSQPTYPGDDAPVRDLIRFYRDLQRYLRVVTRHRY-NH2 (K(Rhod)GPSQPTYPGDDAPVRDLIRFYRDLQRYLRVVTRHRY-NH2; reading uncertain; also: printed as KRhodGPSQPTYPGDDAPVRDLIRFYRDLQRYLRVVTRHRY-NH2) [5.2R],intracellular red fluorescent signal,[5],red fluorescent puncta throughout the cytosol
same,degradation by cathepsin B (HPLC),[6],several additional small peaks
K^RhodRRRRRRRR-NH2 (K(Rhod)RRRRRRRR-NH2; reading uncertain; also: printed as K^RhodRRRRRRRR-NH2) [Arg8R],effect of EIPA on uptake,[7]; 50 μM EIPA,dramatically reduced the uptake
same,effect of dynasore on uptake,[7]; 80 μM dynasore,completely blocked the uptake
same,effect of MβCD on uptake,[7]; 5 mM MβCD,increased
same,intracellular red fluorescent signal,[5],red fluorescent puncta throughout the cytosol
same,material found in SLO cytoplasmic extracts (HPLC),[8],retention times distinct from the starting material; also recorded: little or no material with the same retention time as the starting material
same,degradation by cathepsin B (HPLC),[6],little or no degradation
RRRRRRRR [Arg8],% in cytosol,[3],2.8%
same,[molecule] in cytosol,[3],14.0 nM
WYSCNVCGKAFVLSRHLNRHLRVHRRAT [ZF5.3],% in cytosol,[3],59%
same,[molecule] in cytosol,[3],249 nM
